Test results taken from patent US6403816B1 (Dabur Research Foundation, priority 1997, dated 2002).

What was measured:
L132 = experiment: Tumor cell cytotoxicity assay, lung; format: cell-based; settings: for Lung ECS Ratio: ED50 L132 / ED50 ECV304; for Lung L132 (ED50): concentration causing 50% cytotoxicity
Source text: (§1) The cytotoxicity assays for tumor cells have been described in detail in our application Ser. No. 09/040,856 filed in U.S. on Mar. 18, 1998.

PA-1 = experiment: Tumor cell cytotoxicity assay, ovary; format: cell-based; settings: for Ovary ECS Ratio: ED50 PA-1 / ED50 ECV304; for Ovary PA-1 (ED50): concentration causing 50% cytotoxicity
Source text: as §1

HT-29 = experiment: Tumor cell cytotoxicity assay, colon; format: cell-based; settings: for Colon ECS Ratio: ED50 HT-29 / ED50 ECV304; for Colon HT-29 (ED50): concentration causing 50% cytotoxicity
Source text: as §1

ECV304 = ECV304 endothelial cell proliferation, MTT assay; format: cell-based, human; settings: concentration causing 50% cytotoxicity; MTT after 72 hours
Experimental: 30 μl of ECV304 cell suspension (50×10^4 cells/ml in RPMI 1640 containing 10% FBS) followed by 150 μl of medium was added to the wells of a 96-well tissue culture plate (Nunc, Denmark) and incubated (37° C., 5% CO2) overnight. […] Each concentration was plated in triplicates. 20μl of medium alone was added to control wells. After 72 hours of incubation an MTT assay (Mosmann, 1983) was performed and percentage inhibition in proliferation of treated cells was calculated with respect to control cells.

DU145 = experiment: Tumor cell cytotoxicity assay, prostate; format: cell-based; settings: for Prostate ECS Ratio: ED50 DU145 / ED50 ECV304; for Prostate DU145 (ED50): concentration causing 50% cytotoxicity
Source text: as §1

Row | SMILES | Lung ECS Ratio (L132) | Lung L132 (ED50) (L132) [µg/mL] | Ovary ECS Ratio (PA-1) | Ovary PA-1 (ED50) (PA-1) [µg/mL] | Colon ECS Ratio (HT-29) | Colon HT-29 (ED50) (HT-29) [µg/mL] | Endothelial ECV304 (ED50) (ECV304) [µg/mL] | Prostate ECS Ratio (DU145) | Prostate DU145 (ED50) (DU145) [µg/mL]
1 | C=C(C)C1CCC2(C(=O)O)CCC3(C)C(CCC4C5(C)CCC(=NNc6ccccc6)C(C)(C)C5CCC43C)C12 (stereo not drawn) [MJ353-RS] | 1.9 | 4.5 | 2.08 | 5 | 4.2 | >10 | 2.4 | 2.7 | 6.5
2 | COC(=O)CCOC(=O)C12CCC(C(C)(Br)CBr)C1C1CCC3C4(C)CC(Br)C(=O)C(C)(C)C4CCC3(C)C1(C)CC2 (stereo not drawn) [MJ548-RS] | >4 | >10 | 1.56 | 3.9 | 4.0 | >10 | 2.5 | >4 | >10
3 | CC(C)C1CCC2(C(=O)O)CCC3(C)C(CCC4C5(C)CCC(NNc6ccccc6)C(C)(C)C5CCC43C)C12 (stereo not drawn) [MJ878-RS] | 1.6 | 0.8 | 7.0 | 3.5 | 3.5 | 1.75 | 0.5 | 19.8 | 9.9
4 | COc1ccc(NNC2CCC3(C)C(CCC4(C)C3CCC3C5C(C(C)C)CCC5(C(=O)O)CCC34C)C2(C)C)cc1 (stereo not drawn) [MJ912-RS] | >10 | >4 | – | – | 0.87 | 0.35 | 0.4 | 21.1 | 8.5
5 | CC(C)C1CCC2(C(=O)O)CCC3(C)C(CCC4C5(C)CCC(OC(=O)c6cc(F)cc(F)c6)C(C)(C)C5CCC43C)C12 (stereo not drawn) [MJ935-RS] | 1.7 | 1.2 | – | – | >14.3 | >10 | 0.7 | 4.5 | 3.2
6 | C=C(C)C1CCC2(C(=O)O)CCC3(C)C(CCC4C5(C)CCC(OC(=O)c6cccc(C(F)(F)F)c6)C(C)(C)C5CCC43C)C12 (stereo not drawn) [MJ939-RS] | 3.0 | 2.7 | >4.4 | >4 | >11.1 | >10 | 0.9 | >11.1 | >10
7 | C=C(C)C1CCC2(C(=O)O)CCC3(C)C(CCC4C5(C)CCC(OC(=O)Cc6cc(OC)ccc6OC)C(C)(C)C5CCC43C)C12 (stereo not drawn) [MJ1108-RS] | 2.5 | 4.6 | – | – | >5.6 | >10 | 1.8 | 0.55 | 1
